According to patent US9914739B2, “6H-furo[2,3-E]indole compounds for the treatment of hepatitis C” (BRISTOL-MYERS SQUIBB COMPANY, priority 2014, dated 2018):

Assays:
[1] = tested on: genotype 1b (Con-1) HCV replicon; assay: HCV replicon luciferase assay, genotype 1b; type: cell-based; conditions: Hepatitis C virus, Huh-7, 72 h, Huh-7 cells with genotype 1b HCV replicon, Renilla luciferase, 3 days incubation; class symbol
Method: The cell lines used to evaluate compounds consist of a human hepatocyte derived cell line (Huh-7) that constitutively expresses a genotype 1b (Con-1) HCV replicon or a genotype 1b (Con-1) HCV replicon with an asparagine replacing the cysteine at amino acid 316, or a genotype 2a (JFH-1) replicon, containing a Renilla luciferase reporter gene. These cells were maintained in Dulbecco's modified Eagle medium (DMEM) containing 10% FBS, 100 U/mL penicillin/streptomycin and 1.0 mg/mL G418.
To evaluate compound efficacy, titrated compounds were transferred to sterile 384-well tissue culture treated plates, and the plates were seeded with HCV replicon cells (50 μL at a density of 2.4×10^3 cells/well) in DMEM containing 4% FBS (final DMSO concentration at 0.5%). After 3 days incubation at 37° C., cells were analyzed for Renilla Luciferase activity using the EnduRen substrate (Promega cat #E6485) according to the manufacturer's directions. Briefly, the EnduRen substrate was diluted in DMEM and then added to the plates to a final concentration of 7.5 μM. The plates were incubated for at least 1 h at 37° C. then read on a Viewlux Imager (PerkinElmer) using a luminescence program. The 50% effective concentration (EC50) was calculated using the four-parameter logistic formula noted above.

HCV = conditions: cited from earlier work

Row | Molecule | EC50 [1] [µM] | also measured
1 | CCc1c[nH]c2c(OC(C)C)cc3c(C(=O)NC)c(-c4ccc(F)cc4)oc3c12 [Compound 6003] | > 1 | –
2 | CCN(C)C(=O)c1c(-c2ccc(F)cc2)oc2c1cc(OC(C)C)c1c2ccn1CC [Compound 6004] | > 1 | –
3 | CCc1cn(CC)c2c(OC(C)C)cc3c(C(=O)NC)c(-c4ccc(F)cc4)oc3c12 [Compound 6005] | > 1 | –
4 | CCN(CC(C)(C)C)C(=O)c1cccc(-c2cc3c(C(=O)NC)c(-c4ccc(F)cc4)oc3c3ccn(CC)c23)c1 [Compound 6007] | 0.1 to 1 | –
5 | CNC(=O)c1c(-c2ccc(F)cc2)oc2cc(N(CCO)S(C)(=O)=O)c(C3CC3)cc12 [HCV-796] | – | hepatic toxicity (HCV; extended dosing of the combination regimens): hepatic toxicity observed
6 | alpha-interferon and ribavirin | – | sustained efficacy (HCV; patients, combination therapy): 40 % of patients
7 | pegylated alpha-interferon | – | efficacy as monotherapy compared with unmodified alpha-interferon (HCV; recent clinical results, monotherapy): superior to unmodified alpha-interferon
